Data taken from patent US7064139B2, “Method for treating retroviral infections” (Uniroyal Chemical Company, Inc., priority 2001, dated 2006).
Values after ≈ are worked out from the molar mass of the structure shown.

Test system: HIV-1 (IIIB)
Assay: microbe, parasite or virus in culture
Type: cell-based
Details: CEM cells, syncytium formation, day four post infection
Source text: (§1) The cell type used to determine activity of the compounds of the invention herein, i.e., the test compounds, against HIV was human T-lymphoblast (CEM) cells obtained from the American Tissue Cell Culture Collection (Rockville, Md.). HIV-1 (IIIB) was originally obtained from the culture of persistently HIV-1 infected H9 cells and was provided by R. C. Gallo and M. Popovic (National Cancer Institute, National Institutes of Health, Bethesda, Md.). HIV-2 (ROD) was originally obtained from L. M. Montagnier (Pasteur Institute, Paris, France).
(§2) To determine the antiviral activity of the test compounds, CEM cells were suspended at a cell density of approximately 300,000 cells per ml of culture medium and infected with approximately 100 CCID50 (100 CCID50 being the 50% cell culture infective dose) of HIV-1 (IIIB) or HIV-2 (ROD)). Then 100 μl of the infected cell suspensions was added to 200 μl micro titer plate wells containing 100 μl of appropriate serial (5-fold) dilutions of the test compounds. The inhibitory effect of the test compounds on HIV-1 or HIV-2 syncytium formation in CEM cells was examined microscopically on day four post infection.
(§3) In these cases, the percent protection of the cells against virus-induced cytopathicity by the test compounds at the indicated compound concentration in the previous column is given.

SMILES | EC50 (ug/ml) HIV-1
Cc1ccc(C)c(CS(=O)(=O)c2ccccn2)c1 [Compound 150] | 3.25 µg/mL (≈ 12.4 µM)
O=[N+]([O-])c1ccccc1CS(=O)(=O)c1cccc[n+]1[O-] [Compound 42] | 8.00 µg/mL (≈ 27.2 µM)
CN1CCCCC1CSc1cccc[n+]1[O-] (racemic) [Compound 156] | 16.00 µg/mL (≈ 67.1 µM)
Cc1ccc(C)c(C[S+]([O-])c2ccc(Cl)c[n+]2[O-])c1 (stereo not drawn) [Compound 153] | 2.10 µg/mL (≈ 7.1 µM)
[O-][n+]1ccccc1[S+]([O-])Cc1ccc(F)cc1 (stereo not drawn) [Compound 92] | ≧20 ug/ml
O=S(=O)(Cc1ccc2ccccc2c1)c1cccc[n+]1[O-] [Compound 53] | 2.33 µg/mL (≈ 7.78 µM)
Cc1ccccc1CS(=O)(=O)c1c(C)ccc[n+]1[O-] [Compound 82] | 9.30 µg/mL (≈ 33.5 µM)
Cc1ccc[n+]([O-])c1S(=O)(=O)Cc1ccccc1 [Compound 80] | 15.00 µg/mL (≈ 57 µM)
Cc1ccc(C)c(CS(=O)(=O)c2cccc(Cl)[n+]2[O-])c1 [Compound 77] | 0.70 µg/mL (≈ 2.25 µM)
CCOc1ccccc1CS(=O)(=O)c1cccc[n+]1[O-] [Compound 48] | 9.50 µg/mL (≈ 32.4 µM)
O=S(=O)(Cc1ccccc1F)c1cccc[n+]1[O-] [Compound 22] | 12.00 µg/mL (≈ 44.9 µM)
[O-][n+]1ccccc1[S+]([O-])Cc1ccc2c(c1)OCO2 (stereo not drawn) [Compound 96] | 20.00 µg/mL (≈ 72.1 µM)
CCC(C)(C)c1ccc(CS(=O)(=O)c2cccc[n+]2[O-])cc1 [Compound 40, 2-(((4-(1,1-dimethyl)propyl)phenyl)methylsulfonyl)pyridine-N-oxide] | 3.10 µg/mL (≈ 9.7 µM)
COc1ccc([N+](=O)[O-])cc1CS(=O)(=O)c1cccc[n+]1[O-] [Compound 20] | 7.00 µg/mL (≈ 21.6 µM)

Same assay, conditions: protection of CEM cells against virus-induced cytopathicity at the concentration in the previous column

SMILES | HIV-1 % Protection
[O-][n+]1ccccc1[S+]([O-])Cc1ccc(F)cc1 (stereo not drawn) [Compound 92] | 37.5%

Test system: HIV-2 (ROD)
Assay: Inhibition of HIV-2 syncytium formation in CEM cells
Type: cell-based
Details: CEM cells, syncytium formation, day four post infection
Source text: as §1, §2, §3

SMILES | EC50 (ug/ml) HIV-2
Cc1ccc(C)c(CS(=O)(=O)c2ccccn2)c1 [Compound 150] | 20.0 µg/mL (≈ 76.5 µM)
O=[N+]([O-])c1ccccc1CS(=O)(=O)c1cccc[n+]1[O-] [Compound 42] | ≧4 ug/ml
CN1CCCCC1CSc1cccc[n+]1[O-] (racemic) [Compound 156] | >100 µg/mL
Cc1ccc(C)c(C[S+]([O-])c2ccc(Cl)c[n+]2[O-])c1 (stereo not drawn) [Compound 153] | 3.0 µg/mL (≈ 10.1 µM)
[O-][n+]1ccccc1[S+]([O-])Cc1ccc(F)cc1 (stereo not drawn) [Compound 92] | 4.0 µg/mL (≈ 15.9 µM)
O=S(=O)(Cc1ccc2ccccc2c1)c1cccc[n+]1[O-] [Compound 53] | 4.1 µg/mL (≈ 13.7 µM)
Cc1ccccc1CS(=O)(=O)c1c(C)ccc[n+]1[O-] [Compound 82] | ≧20 ug/ml
Cc1ccc[n+]([O-])c1S(=O)(=O)Cc1ccccc1 [Compound 80] | >20.0 µg/mL
Cc1ccc(C)c(CS(=O)(=O)c2cccc(Cl)[n+]2[O-])c1 [Compound 77] | >0.8 µg/mL
CCOc1ccccc1CS(=O)(=O)c1cccc[n+]1[O-] [Compound 48] | 16.0 µg/mL (≈ 54.5 µM)
O=S(=O)(Cc1ccccc1F)c1cccc[n+]1[O-] [Compound 22] | 6.3 µg/mL (≈ 23.6 µM)
[O-][n+]1ccccc1[S+]([O-])Cc1ccc2c(c1)OCO2 (stereo not drawn) [Compound 96] | 12.0 µg/mL (≈ 43.3 µM)
CCC(C)(C)c1ccc(CS(=O)(=O)c2cccc[n+]2[O-])cc1 [Compound 40, 2-(((4-(1,1-dimethyl)propyl)phenyl)methylsulfonyl)pyridine-N-oxide] | 3.4 µg/mL (≈ 10.6 µM)
COc1ccc([N+](=O)[O-])cc1CS(=O)(=O)c1cccc[n+]1[O-] [Compound 20] | 13.0 µg/mL (≈ 40.1 µM)

Same assay, conditions: protection of CEM cells against virus-induced cytopathicity at the concentration in the previous column

SMILES | HIV-2 % Protection
O=[N+]([O-])c1ccccc1CS(=O)(=O)c1cccc[n+]1[O-] [Compound 42] | 37.5%
CN1CCCCC1CSc1cccc[n+]1[O-] (racemic) [Compound 156] | 0.0%
Cc1ccccc1CS(=O)(=O)c1c(C)ccc[n+]1[O-] [Compound 82] | 37.5%
Cc1ccc[n+]([O-])c1S(=O)(=O)Cc1ccccc1 [Compound 80] | 0.0%
Cc1ccc(C)c(CS(=O)(=O)c2cccc(Cl)[n+]2[O-])c1 [Compound 77] | 0.0%

Test system: Davis strain CMV
Assay: Reduction of CMV-induced cytopathicity in HEL cells
Type: cell-based, human cytomegalovirus (HCMV)
Details: HEL cells, estimate of percent protection at the concentration in the previous column
Experimental: Confluent HEL cells grown in […] microtiter plates were inoculated with CMV at an input of 100 PFU (plaque forming units) per well. After a one to two hour incubation period, residual virus was removed and the infected cells were further incubated with MEM (Minimal Essential Medium) (supplemented with 2% inactivated Fetal Calf Serum (FCS), […], and 0.3% sodium bicarbonate) containing varying concentrations of the test compounds. Antiviral activity was expressed as EC50 (50% effective concentration), or test compound concentration required to reduce virus-induced cytopathicity after seven days by 50% compared to the untreated control.
In some cases, the compounds had considerable cytotoxicity against HEL cells, which made determination of the EC50 difficult. In these cases, an estimate of the percent protection at the compound concentration indicated in the previous columns is given.

SMILES | Antiviral % Inhibition Davis strain CMV
Cc1ccc(C)c(CS(=O)(=O)c2ccccn2)c1 [Compound 150] | 20.0%
O=[N+]([O-])c1ccccc1CS(=O)(=O)c1cccc[n+]1[O-] [Compound 42] | 10.0%
CN1CCCCC1CSc1cccc[n+]1[O-] (racemic) [Compound 156] | 0.0%
[O-][n+]1ccccc1[S+]([O-])Cc1ccc(F)cc1 (stereo not drawn) [Compound 92] | 10.0%
O=S(=O)(Cc1ccc2ccccc2c1)c1cccc[n+]1[O-] [Compound 53] | 20.0%
Cc1ccccc1CS(=O)(=O)c1c(C)ccc[n+]1[O-] [Compound 82] | 0.0%
Cc1ccc[n+]([O-])c1S(=O)(=O)Cc1ccccc1 [Compound 80] | 0.0%
CCOc1ccccc1CS(=O)(=O)c1cccc[n+]1[O-] [Compound 48] | 20.0%
[O-][n+]1ccccc1[S+]([O-])Cc1ccc2c(c1)OCO2 (stereo not drawn) [Compound 96] | 0.0%

Same assay, conditions: HEL cells, virus-induced cytopathicity after seven days

SMILES | Antiviral EC50 (ug/ml) Davis strain CMV
Cc1ccc(C)c(CS(=O)(=O)c2ccccn2)c1 [Compound 150] | >50 µg/mL
O=[N+]([O-])c1ccccc1CS(=O)(=O)c1cccc[n+]1[O-] [Compound 42] | >5 µg/mL
CN1CCCCC1CSc1cccc[n+]1[O-] (racemic) [Compound 156] | >50 µg/mL
Cc1ccc(C)c(C[S+]([O-])c2ccc(Cl)c[n+]2[O-])c1 (stereo not drawn) [Compound 153] | 11.5 µg/mL
[O-][n+]1ccccc1[S+]([O-])Cc1ccc(F)cc1 (stereo not drawn) [Compound 92] | >50 µg/mL
O=S(=O)(Cc1ccc2ccccc2c1)c1cccc[n+]1[O-] [Compound 53] | >5 µg/mL
Cc1ccccc1CS(=O)(=O)c1c(C)ccc[n+]1[O-] [Compound 82] | >5 µg/mL
Cc1ccc[n+]([O-])c1S(=O)(=O)Cc1ccccc1 [Compound 80] | >20 µg/mL
Cc1ccc(C)c(CS(=O)(=O)c2cccc(Cl)[n+]2[O-])c1 [Compound 77] | 11.0 µg/mL
CCOc1ccccc1CS(=O)(=O)c1cccc[n+]1[O-] [Compound 48] | >20 µg/mL
O=S(=O)(Cc1ccccc1F)c1cccc[n+]1[O-] [Compound 22] | 7.0 µg/mL
[O-][n+]1ccccc1[S+]([O-])Cc1ccc2c(c1)OCO2 (stereo not drawn) [Compound 96] | >50 µg/mL
CCC(C)(C)c1ccc(CS(=O)(=O)c2cccc[n+]2[O-])cc1 [Compound 40, 2-(((4-(1,1-dimethyl)propyl)phenyl)methylsulfonyl)pyridine-N-oxide] | 1.5 µg/mL
COc1ccc([N+](=O)[O-])cc1CS(=O)(=O)c1cccc[n+]1[O-] [Compound 20] | 13.0 µg/mL
